Common to all, as to type: cell-based
The target in experiment [1] is T1, P2X7 (Homo sapiens (Human), UniProt Q99572). In words: Ca2+ flux (FLIPR) in 1321N1 cells expressing recombinant human P2X7 channel. The settings on record: 250 μM BzATP, Calcium-4 dye. The procedure:
(§1) 1321N1 cells expressing the recombinant human, rat or mouse P2X7 channel was cultured in HyQ DME/(HyClone/Dulbecco's Modified Eagle Medium) high glucose supplemented with 10% Fetal Bovine Serum (FBS) and appropriate selection marker. Cells were seeded at a density of 25000 cells/well (96-well clear bottom black walled plates) in 100 μl volume/well. On the day of the experiment, cell plates were washed with assay buffer, containing (in mM): 130 NaCl, 2 KCl, 1 CaCl2, 1 MgCl2, 10 HEPES, 5 glucose; pH 7.40 and 300 mOs. After the wash, cells were loaded with the Calcium-4 dye (Molecular Device) and incubated in the dark for 60 minutes. Test compounds were prepared at 250× the test concentration in neat DMSO. Intermediate 96-well compound plates were prepared by transferring 1.2 μL of the compound into 300 μL of assay buffer. A further 3× dilution occurred when transferring 50 μL/well of the compound plate to 100 μL/well in the cell plate. Cells were incubated with test compounds and dye for 30 minutes. […] The fluorescence change was measured 180 seconds after adding the agonist.
(In general: Calcium assays in cells follow changes in intracellular calcium, usually with a dye or a luminescent sensor.)

Another experiment addresses rat P2X7 (Rattus norvegicus (Rat), UniProt Q64663). In words: Ca2+ flux (FLIPR) in 1321N1 cells expressing recombinant rat P2X7 channel. The settings on record: 250 μM BzATP, Calcium-4 dye. On the procedure:
as §1

Experiment [2] addresses T1, P2X7. In words: P2X7 antagonism in human PBMCs (IL-1β release, ELISA). The conditions noted are these: test compound 10 μM, IL-1β release in human PBMCs, LPS 30 ng/ml + Bz-ATP 0.5 mM, read-out: PBMC 10 μM (% control). On the procedure: Human blood was collected using a blood donor program. […] Cells were incubated for an additional 1.5 hours. […] In Table 2, when the data cell has been left blank, it is intended to mean that the compound was not tested in that assay.
On the technique in general: ELISA stands for enzyme-linked immunosorbent assay.

A value given as a limit tells only on which side of the number the result lay.

T1 sequence (Q99572 whole entry): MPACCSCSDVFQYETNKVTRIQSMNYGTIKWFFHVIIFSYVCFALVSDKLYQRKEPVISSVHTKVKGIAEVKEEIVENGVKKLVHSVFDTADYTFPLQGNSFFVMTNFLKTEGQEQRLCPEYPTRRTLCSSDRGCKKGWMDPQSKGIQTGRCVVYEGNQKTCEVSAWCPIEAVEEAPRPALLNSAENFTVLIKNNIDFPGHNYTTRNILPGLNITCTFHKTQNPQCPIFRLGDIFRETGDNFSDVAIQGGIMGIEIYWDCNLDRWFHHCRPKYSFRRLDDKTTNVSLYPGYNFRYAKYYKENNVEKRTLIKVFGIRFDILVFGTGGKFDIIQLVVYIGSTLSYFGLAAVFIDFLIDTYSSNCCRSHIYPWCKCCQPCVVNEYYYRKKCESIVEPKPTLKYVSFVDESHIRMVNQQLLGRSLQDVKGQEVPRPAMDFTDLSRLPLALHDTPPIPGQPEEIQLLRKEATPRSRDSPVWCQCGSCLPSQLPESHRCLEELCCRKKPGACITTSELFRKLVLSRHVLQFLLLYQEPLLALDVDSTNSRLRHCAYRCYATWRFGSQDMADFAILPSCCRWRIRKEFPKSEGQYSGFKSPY
Chain of rat P2X7 (Q64663 whole entry): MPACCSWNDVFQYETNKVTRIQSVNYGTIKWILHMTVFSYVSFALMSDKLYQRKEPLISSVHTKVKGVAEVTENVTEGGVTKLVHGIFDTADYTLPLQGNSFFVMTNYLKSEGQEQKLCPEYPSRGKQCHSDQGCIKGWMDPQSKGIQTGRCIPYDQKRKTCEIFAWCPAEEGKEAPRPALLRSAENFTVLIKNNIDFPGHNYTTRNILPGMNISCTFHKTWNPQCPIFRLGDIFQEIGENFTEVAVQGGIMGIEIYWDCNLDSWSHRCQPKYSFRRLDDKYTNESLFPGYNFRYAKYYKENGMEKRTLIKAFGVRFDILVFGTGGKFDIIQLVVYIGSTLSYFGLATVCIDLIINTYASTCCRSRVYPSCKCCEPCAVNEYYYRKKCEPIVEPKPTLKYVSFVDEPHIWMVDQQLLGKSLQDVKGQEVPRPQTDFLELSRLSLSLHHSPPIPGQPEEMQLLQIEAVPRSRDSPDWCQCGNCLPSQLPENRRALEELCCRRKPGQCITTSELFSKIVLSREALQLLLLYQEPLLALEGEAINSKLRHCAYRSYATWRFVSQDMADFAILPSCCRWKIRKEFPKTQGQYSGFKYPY

Regarding `Cc1nc2c(c(-c3ccccc3)n1)CCN(C(=O)c1cccc(C(F)(F)F)c1Cl)C2` [Example 32, 7-{[2-Chloro-3-(trifluoromethyl)phenyl]carbonyl}-2-methyl-4-phenyl-5,6,7,8-tetrahydropyrido[3,4-d]pyrimidine], the IC50 (in general, the concentration needed to halve the response being measured) on P2X7 [1] was 265 nM. As to `CCc1nc2c(c(-c3ccn[nH]3)n1)CC(C)N(C(=O)c1ccc(Cl)c(F)c1Cl)C2` (centres unmarked) [Example 104, (2,4-dichloro-3-fluorophenyl)(2-ethyl-6-methyl-4-(1H-pyrazol-5-yl)-5,6-dihydropyrido[3,4-d]pyrimidin-7(8H)-yl)methanone], on rat P2X7, the IC50 amounted to 23.7 nM. The remaining activity at 10 µM at P2X7 [2] is -1.3%.

`CC1c2ncnc(-c3ccn[nH]3)c2CCN1C(=O)c1cccc(C(F)(F)F)c1Cl` (centres unmarked) [Example 112, (2-chloro-3-(trifluoromethyl)phenyl)(8-methyl-4-(1H-pyrazol-5-yl)-5,6-dihydropyrido[3,4-d]pyrimidin-7(8H)-yl)methanone]: the IC50 at rat P2X7 amounted to 16 nM. Besides, the remaining activity at 10 µM on P2X7 [2] is -1.8%. For `CC1c2ncnc(-c3ccn[nH]3)c2CCN1C(=O)c1ccc(F)c(Cl)c1Cl` (centres unmarked) [Example 118, (2,3-dichloro-4-fluorophenyl)(8-methyl-4-(1H-pyrazol-5-yl)-5,6-dihydropyrido[3,4-d]pyrimidin-7(8H)-yl)methanone], the IC50 on rat P2X7 came out at 21 nM. Moreover, the remaining activity at 10 µM at P2X7 [2] is -0.6%. As for `Nc1nc2c(c(-c3ccccc3)n1)CCN(C(=O)c1cccc(Cl)c1Cl)C2` [Example 29, 7-[(2,3-Dichlorophenyl)carbonyl]-4-phenyl-5,6,7,8-tetrahydropyrido[3,4-d]pyrimidin-2-amine], the half-inhibitory concentration (IC50) on P2X7 [1] is 796 nM.

For `O=C(c1cccc(Cl)c1Cl)N1CCc2c(ncnc2-c2cn[nH]c2)C1` [Example 4, 7-[(2,3-Dichlorophenyl)carbonyl]-4-(1H-pyrazol-4-yl)-5,6,7,8-tetrahydropyrido[3,4-d]pyrimidine], the concentration for half-maximal inhibition (IC50) came out at 388 nM at P2X7 [1] and 12500 nM at rat P2X7. `Cc1nc2c(c(-c3ccc(F)cc3)n1)CCN(C(=O)c1cccc(Cl)c1Cl)C2` [Example 28, 7-[(2,3-Dichlorophenyl)carbonyl]-4-(4-fluorophenyl)-2-methyl-5,6,7,8-tetrahydropyrido[3,4-d]pyrimidine]: on rat P2X7, the concentration for half-maximal inhibition (IC50) amounted to 8570 nM. Moreover, the remaining activity at 10 µM on P2X7 [2] was 12.4%. Consider `Cn1cc(-c2ncnc3c2CCN(C(=O)c2cccc(Cl)c2Cl)C3)cn1` [Example 5, 7-[(2,3-Dichlorophenyl)carbonyl]-4-(1-methyl-1H-pyrazol-4-yl)-5,6,7,8-tetrahydropyrido[3,4-d]pyrimidine], for which the IC50 is 12800 nM at P2X7 [1] and > 10000 nM on rat P2X7.

Turning to `Cc1nc2c(c(-c3ccn[nH]3)n1)CC(C)N(C(=O)c1cccc(Cl)c1Cl)C2` (centres unmarked) [Example 67, (2,3-dichlorophenyl)(2,6-dimethyl-4-(1H-pyrazol-5-yl)-5,6-dihydropyrido[3,4-d]pyrimidin-7(8H)-yl)methanone], the IC50 on rat P2X7 was 14.5 nM. Further, the remaining activity at 10 µM on P2X7 [2] is -1.3%. Consider `Cc1nc2c(c(-c3ccn[nH]3)n1)C[C@@H](C)N(C(=O)c1ccc(Cl)cc1F)C2` (single isomer, unassigned) [Example 88, (R*)-(4-chloro-2-fluorophenyl)(2,6-dimethyl-4-(1H-pyrazol-5-yl)-5,6-dihydropyrido[3,4-d]pyrimidin-7(8H)-yl)methanone], for which, on P2X7 [1], the half-maximal inhibitory concentration (IC50) turned out to be 11000 nM.

Take `Cc1nc2c(c(-c3ccn[nH]3)n1)CC(C)N(C(=O)c1cc(Cl)ccc1Cl)C2` (centres unmarked) [Example 86, (2,5-dichlorophenyl)(2,6-dimethyl-4-(1H-pyrazol-5-yl)-5,6-dihydropyrido[3,4-d]pyrimidin-7(8H)-yl)methanone]: the remaining activity at 10 µM on P2X7 [2] was 92.2%.

As to `Cc1nc2c(c(-c3cnoc3)n1)CCN(C(=O)c1cccc(C(F)(F)F)c1Cl)C2` [Example 49, 7-{[2-Chloro-3-(trifluoromethyl)phenyl]carbonyl}-4-isoxazol-4-yl-2-methyl-5,6,7,8-tetrahydropyrido[3,4-d]pyrimidine], at P2X7 [2], the remaining activity at 10 µM was 16.3%. Regarding `Cc1nc2c(c(-c3ccn[nH]3)n1)C[C@H](C)N(C(=O)c1cccc(C(F)(F)F)c1C)C2` (single isomer, unassigned) [Example 79, (S*)-(2,6-dimethyl-4-(1H-pyrazol-5-yl)-5,6-dihydropyrido[3,4-d]pyrimidin-7(8H)-yl)(2-methyl-3-(trifluoromethyl)phenyl)methanone], at P2X7 [1], the IC50 is 3240 nM. In the case of `Cc1cccc(C(=O)N2CCc3c(ncnc3-c3cnn(C)c3)C2)c1Cl` [Example 6, 7-[(2-Chloro-3-methylphenyl)carbonyl]-4-(1-methyl-1H-pyrazol-4-yl)-5,6,7,8-tetrahydropyrido[3,4-d]pyrimidine], the remaining activity at 10 µM at P2X7 [2] was found to be 49.5%.

Regarding `Cc1nc2c(c(-c3ccccn3)n1)CCN(C(=O)c1cccc(C(F)(F)F)c1Cl)C2` [Example 30, 7-{[2-Chloro-3-(trifluoromethyl)phenyl]carbonyl}-2-methyl-4-pyridin-2-yl-5,6,7,8-tetrahydropyrido[3,4-d]pyrimidine], the remaining activity at 10 µM at P2X7 [2] was 21%. For the compound `COCCn1ccc(-c2nc(C)nc3c2C[C@H](C)N(C(=O)c2cccc(C(F)(F)F)c2Cl)C3)n1` (single isomer, unassigned) [Example 127, (S*)-(2-chloro-3-(trifluoromethyl)phenyl)(4-(1-(2-methoxyethyl)-1H-pyrazol-3-yl)-2,6-dimethyl-5,6-dihydropyrido[3,4-d]pyrimidin-7(8H)-yl)methanone], the IC50 on P2X7 [1] and on rat P2X7 was > 10000 nM throughout.

With `Nc1nc2c(c(-c3ccn[nH]3)n1)CCN(C(=O)c1cccc(C(F)(F)F)c1Cl)C2` [Example 55, 7-{[2-Chloro-3-(trifluoromethyl)phenyl]carbonyl}-4-(1H-pyrazol-5-yl)-5,6,7,8-tetrahydropyrido[3,4-d]pyrimidin-2-amine], the IC50 at rat P2X7 was 117 nM. The remaining activity at 10 µM on P2X7 [2] is -2.1%.

In the case of `Cc1nc2c(c(-c3ccn[nH]3)n1)C[C@@H](C)N(C(=O)c1ccc(F)cc1F)C2` (single isomer, unassigned) [Example 94, (R*)-(2,4-difluorophenyl)(2,6-dimethyl-4-(1H-pyrazol-5-yl)-5,6-dihydropyrido[3,4-d]pyrimidin-7(8H)-yl)methanone], the IC50 on P2X7 [1] and at rat P2X7 was > 10000 nM throughout. `CC(C)c1nc2c(c(-c3ccn[nH]3)n1)CC(C)N(C(=O)c1cccc(C(F)(F)F)c1Cl)C2` (centres unmarked) [Example 101, (2-chloro-3-(trifluoromethyl)phenyl)(2-isopropyl-6-methyl-4-(1H-pyrazol-5-yl)-5,6-dihydropyrido[3,4-d]pyrimidin-7(8H)-yl)methanone]: at P2X7 [2], the remaining activity at 10 µM was found to be 13.6%. Take `O=C(c1cccc(Cl)c1Cl)N1CCc2c(ncnc2-n2cccn2)C1` [Example 22, 7-[(2,3-Dichlorophenyl)carbonyl]-4-(1H-pyrazol-1-yl)-5,6,7,8-tetrahydropyrido[3,4-d]pyrimidine]: the IC50 at P2X7 [1] was determined as 198 nM; at rat P2X7 it was 28100 nM. In the case of `Cc1nc2c(c(-c3ccnn3C)n1)CC(C)N(C(=O)c1cccc(C(F)(F)F)c1Cl)C2` (centres unmarked) [Example 73, (2-chloro-3-(trifluoromethyl)phenyl)(2,6-dimethyl-4-(1-methyl-1H-pyrazol-5-yl)-5,6-dihydropyrido[3,4-d]pyrimidin-7(8H)-yl)methanone], the concentration for half-maximal inhibition (IC50) on rat P2X7 is 17.8 nM. For the same compound, the remaining activity at 10 µM at P2X7 [2] was 2.2%.

`Cc1nc2c(c(-c3ccccn3)n1)CCN(C(=O)c1cccc(Cl)c1Cl)C2` [Example 31, 7-[(2,3-Dichlorophenyl)carbonyl]-2-methyl-4-pyridin-2-yl-5,6,7,8-tetrahydropyrido[3,4-d]pyrimidine]: at P2X7 [2], the remaining activity at 10 µM is 9.2%. On the same count and under the same terms, for `Cc1noc(C)c1-c1ncnc2c1CCN(C(=O)c1cccc(C(F)(F)F)c1Cl)C2` [Example 50, 7-{[2-Chloro-3-(trifluoromethyl)phenyl]carbonyl}-4-(3,5-dimethylisoxazol-4-yl)-5,6,7,8-tetrahydropyrido[3,4-d]pyrimidine] the value was 83.5%; for `Cc1nc2c(c(-c3ccc[nH]3)n1)CCN(C(=O)c1cccc(C(F)(F)F)c1Cl)C2` [Example 45, 7-{[2-Chloro-3-(trifluoromethyl)phenyl]carbonyl}-2-methyl-4-(1H-pyrrol-2-yl)-5,6,7,8-tetrahydropyrido[3,4-d]pyrimidine], 7.1%. Consider `Cc1nc2c(c(-c3ccn[nH]3)n1)CCN(C(=O)c1cccc(C(F)(F)F)c1F)C2` [Example 51, 7-{[2-Fluoro-3-(trifluoromethyl)phenyl]carbonyl}-2-methyl-4-(1H-pyrazol-5-yl)-5,6,7,8-tetrahydropyrido[3,4-d]pyrimidine], for which the remaining activity at 10 µM on P2X7 [2] was 17.3%. Turning to `Cc1nc2c(c(-c3ccn[nH]3)n1)CC(C)N(C(=O)c1cccc(C(F)(F)F)c1Cl)C2` (centres unmarked) [Example 56, 7-{[2-Chloro-3-(trifluoromethyl)phenyl]carbonyl}-2,6-dimethyl-4-(1H-pyrazol-5-yl)-5,6,7,8-tetrahydropyrido[3,4-d]pyrimidine], the remaining activity at 10 µM on P2X7 [2] is 10.2%.

The values are drawn from US9096596B2 (Janssen Pharmaceutica NV, priority 2013, dated 2015).
